The record followed here is patent publication US20190359989A1, “FUSION PROTEIN AND APPLICATIONS THEREOF” (CARSGEN THERAPEUTICS CO., LTD., priority 2016, published 2019).

Assay [1] relates to FR806-positive HEK293T. The experiment in a line: Cell killing experiment on EGFR+ HEK293T cells expressing FR806. The format is cell-based. From the text:
Moreover, the applicant selected EGFR+ HEK293T cells expressing FR806, and subjected them to cell killing experiments.

In assay [2] the test system is FR806-negative HEK293T. The experiment in a line: Cell killing experiment on FR806-negative EGFR+ HEK293T cells. In kind it is cell-based.
Assay [3] has as its system FR806-positive T cells. The experiment in a line: CCK8 assay for killing FR806-expressing T cells. In kind it is cell-based, human. Particulars: CCK8, 72 h, 10-1000 nM. For orientation: Formazan colour is commonly taken as a measure of viable cells.
Method: Experimental group: T cells expressing eGFP-FR806 after sorted in Example 3 were plated in a 96-well plate at 3×10^4 cells per well in 100 ul of medium, 5 replicate wells per drug concentration, and then a blank group of medium was set. Control group: T cells that were not infected with the virus were taken and plated in a 96-well plate according to the operation of the experimental group. […] After 72 h, 10 ul of CCK8 reagent (Dojindo) was added to each well and incubated at 37° C. for 3 h, and the absorbance was measured at 450 nm by a microplate reader to calculate the cell viability.
According to the above procedure, the sorted T cells infected with eGFP-FR806 were taken and plated in a 96-well plate at 3×10^4 cells per well in 100 ul of culture medium, 5 replicate wells per drug concentration, and then a blank group of medium was set. The control group was uninfected T cells, which were plated in a 96-well plate by the same method. Six concentrations of free MMAFs of 1000 nM, 500 nM, 100 nM, 50 nM, 10 nM and 0 nM were added to T cells at specific concentrations to prepare six gradients (i.e., the aforementioned six concentrations). After 72 h, 10 ul of CCK8 reagent (Dojindo) was added to each well for 3 h at 37° C., and the absorbance was measured at 450 nm by a microplate reader to calculate the cell viability. […]
The target in assay [4] is T1, EGFR on Keratinocyte cells and HEK-293T cells (human, UniProt P00533 25-1210).
T1 construct: whole, on cells; also called epidermal growth factor receptor
The experiment in a line: FACS on Keratinocyte cells and HEK-293T cells expressing EGFR.

Where a SMILES comes first, the peptide text is derived from it. [ ]: non-standard residue; d: D form. Dolaproine = CO[C@@H]([C@@H]1CCCN1)[C@@H](C)C(=O)O; Dil = CC[C@H](C)[C@H](NC)[C@@H](CC(=O)O)OC; NMeV = CN[C@H](C(=O)O)C(C)C

For `CC[C@H](C)[C@@H]([C@@H](CC(=O)N1CCC[C@H]1[C@H](OC)[C@@H](C)C(=O)N[C@@H](Cc1ccccc1)C(=O)O)OC)N(C)C(=O)[C@@H](NC(=O)[C@@H](NC)C(C)C)C(C)C` [Free MMAF, MMAF] (H-[NMeV]V[Dil][Dolaproine]F-OH), in assay [1], the “killing of FR806-positive HEK293T” value is given as “killed”. In addition, the “killing of FR806-negative HEK293T” value in assay [2] is “killed”. The “killing levels to T cells expressing and not expressing FR806” value in assay [3] is listed as “comparable”.

B1: CH12 antibody (antibody, human IgG1, kappa, V domains shown)
VH: DVQLQESGPGLVKPSQSLSLTCTVTAYSVTSDYAWNWIRQFPGNKLEWMGYISYSGTTRYNPSLKSRISITRDTSKNQFFLQLNSMTAEDTATYYCSRQGRGFPYWGQGTLVTVSA
VL: DILMTQSPSSMSVSLGDTVSITCHASQDINSNIGWLQQKPGKSFKGLIYHGTNLEDGVPSRFSGSGSGADYSLTISSLESEDFADYYCVQYAQFPWTFGGGTKLEIKR
notes: CH12 antibody as disclosed in CN 200810038848.8; detected with goat anti-human IgG
Regarding B1, the binding result in assay [4] is recorded as “no binding”.
